Assay [1] has as its system α-smooth muscle actin (αSMA) positive LL29 cells. The assay is described as follows: Inhibition of fibrotic process: αSMA in TGF-β1 treated primary human fibroblasts from IPF patients.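 On all read-outs here: controls were TGF-β1 stimulated wells with DMSO vehicle (positive) and cells given DMSO alone (negative), cultured in F12 medium with 1% fetal bovine serum.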 The class given is cell-based. Conditions: Homo sapiens, Fibroblast; for EC50: 96 h, Table 8, LL29 fibroblasts from IPF patients, TGF-β1 20 ng/mL, 4 days, dose-response 10 μM to 0.94 nM; for inhibition at 10 µM: read-out: percent value in parentheses beside EC50 >10 μM.

Assay [2] has as its system SW480 colon carcinoma cells. The assay is described as follows: Cell viability assay (CellTiter-Glo). The assay is classed as cell-based, human. Conditions: Homo sapiens; for EC50: 96 h, SW480 cells, CellTiter-Glo, four days incubation; for inhibition at 10 µM: SW480, read-out: percent inhibition at 10 μM. For orientation: Cellular ATP, detected with luciferase, serves as a proxy for viable cell number.

Assay [3] has as its system Tau phosphorylation at Ser396 (pSer396). The assay is described as follows: Tau phosphorylation assay (pSer396 ELISA / western blot) in SH-SY5Y cells.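 Further: EC50 for reduction of Tau pSer396 in lysed cells, measured by colorimetric ELISA or chemiluminescent western blot, both using the same pSer396 antibody.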 The class given is cell-based, human. Conditions: Homo sapiens, read-out: pSer396 Tau EC50.
Assay [4] deals with recombinant DYRK1A kinase (Homo sapiens (Human), UniProt Q13627). The assay is described as follows: DYRK1A kinase assay (Ser/Thr 18 peptide Z-lyte FRET).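 Further: Read-out is the coumarin to fluorescein emission ratio, referenced to unphosphorylated (0%) and phosphorylated (100%) Ser/Thr 18 peptide controls, values from dose-response curves by non-linear regression.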 The class given is biochemical. The note with it: 30 μM ATP, 1 h room temperature.
Another assay relates to IL-6. Description: IL-6 inhibition in LPS-stimulated human peripheral blood mononuclear cells (HTRF).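 On all read-outs here: IL-6 detected by HTRF with an XL665- and Cryptate-labelled anti-IL-6 antibody pair, samples run in duplicate, EC50 obtained from a four-parameter Levenberg-Marquardt curve fit.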 The class given is cell-based. The note with it: Homo sapiens, PBMC; for EC50: Table 9, huPBMCs, LPS 50 ng/mL, 22 hours, dose-response starting from 10 μM; for inhibition at 10 µM: read-out: percent value in parentheses beside EC50 >10 μM. A general note: In TR-FRET formats the signal depends on donor and acceptor labels being close together.

Another assay addresses recombinant GSK3β kinase (Homo sapiens (Human), UniProt P49841). Description: GSK3β kinase assay (Ser/Thr 09 peptide Z-lyte FRET).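 Further: kinase activity read as coumarin to fluorescein emission ratio, 11-point threefold dilutions from 10 µM to 0.0003 µM in duplicate, unphosphorylated and phosphorylated peptide as 0% and 100% controls.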 The note with it: 46 μM ATP, 1 h room temperature. The assay is classed as biochemical.
For assay [5], the system named is Wnt pathway (Sp5-Luc reporter, TCF/LEF binding sites) in SW480 colon carcinoma cells. The assay is described as follows: Screening assay for Wnt activity: Sp5-Luc reporter gene assay.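 On all read-outs here: firefly luciferase luminescence read in stably transduced SW480 cells carrying the Sp5 promoter reporter with eight TCF/LEF sites, compounds given in 0.1% DMSO final.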 Conditions: Homo sapiens; for EC50: Sp5-Luc reporter, SW480 cells, 36 to 48 hours; for inhibition at 10 µM: SW480, read-out: percent inhibition at 10 μM. The assay is classed as cell-based, human.
Protocol: The screening assay for Wnt activity is described as follows.
Following incubation, 15 μl of BriteLite Plus luminescence reagent (Perkin Elmer) was added to each well of the 384-well assay plates. The plates were placed on an orbital shaker for 2 min and then luminescence was quantified using the Envision (Perkin Elmer) plate reader.

[6] abbreviates: SH-SY5Y cells, overnight (16-18 h) exposure.

The structures appear in SMILES notation. Read-outs that look alike come from different tables or passages of the source.

As usually defined, the EC50 is the concentration at which the effect is half-maximal.

Sequence of recombinant GSK3β kinase (P49841 whole entry): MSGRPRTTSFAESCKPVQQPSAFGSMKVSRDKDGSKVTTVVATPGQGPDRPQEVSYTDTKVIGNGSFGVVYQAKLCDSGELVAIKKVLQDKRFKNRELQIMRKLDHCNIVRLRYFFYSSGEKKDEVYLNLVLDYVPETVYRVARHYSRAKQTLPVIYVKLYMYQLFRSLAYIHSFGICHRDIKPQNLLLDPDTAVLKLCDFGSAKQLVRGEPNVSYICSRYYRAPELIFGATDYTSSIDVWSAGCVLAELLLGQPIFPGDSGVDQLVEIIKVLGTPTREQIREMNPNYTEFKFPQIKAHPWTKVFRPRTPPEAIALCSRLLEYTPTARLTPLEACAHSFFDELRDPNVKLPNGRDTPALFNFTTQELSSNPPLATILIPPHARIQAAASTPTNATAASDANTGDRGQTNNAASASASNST
Protocol for IL-6: After 22 hour incubation, a mixture of anti-IL6 XL665 and anti-IL-6 Cryptate diluted in reconstitution buffer (Catalog #62IL6PEC, Cisbio Inc., Bedford, Mass.) was added to each well. […] All samples were processed in duplicate. […] EC50 was determined using software generated by Dotmatics Limited (Windhill Bishops Stortford Herts, UK) using the Levenberg-Marquardt 4 parameter fitting procedure with finite different gradients.

`CN1CCC[C@@H]1C(=O)Nc1cc2cc(-c3cnn(C)c3)ccc2cn1` [Compound 363, (R)-1-Methyl-N-(6-(1-methyl-1H-pyrazol-4-yl)isoquinolin-3-yl)pyrrolidine-2-carboxamide]: the EC50 stood at 387 nM in assay [1]; 3060 nM in assay [2]; 406 nM in assay [3] (setting [6]); 50.3 nM in assay [4]; 1220 nM in the assay with IL-6; 35 nM on recombinant GSK3β kinase. The same molecule registered an EC50 in assay [5] of 2360 nM.
For `Cn1ncc(-c2ccc3cnc(NC(=O)C4CCOCC4)cc3c2)c1CO` [Compound 984, N-(6-(5-(Hydroxymethyl)-1-methyl-1H-pyrazol-4-yl)isoquinolin-3-yl) tetrahydro-2H-pyran-4-carboxamide], the EC50 in assay [1] is 1240 nM; in assay [2] it was 3130 nM; in assay [3] (setting [6]) it was 2100 nM; in assay [4] it was 5.5 nM; with IL-6 it was 8760 nM; on recombinant GSK3β kinase it was 236 nM. The molecule also registered an EC50 in assay [5] of 2990 nM.
For the molecule `[2H]C([2H])([2H])n1cc(-c2ccc3cnc(NC(=O)CN4CCCCC4)cc3c2)cn1` [Compound 306, N-(6-(1-(Methyl-d3)-1H-pyrazol-4-yl)isoquinolin-3-yl)-2-(piperidin-1-yl) acetamide], the EC50 in assay [1] stood at 282 nM; in assay [2] it was 3200 nM; in assay [3] (setting [6]), 592 nM; in assay [4], 7.2 nM; with IL-6, 2520 nM; on recombinant GSK3β kinase, 66 nM. Also, the response in assay [5] was half-maximal at 3700 nM (EC50).
For the molecule `O=C(Nc1cc2cc(-c3cnc4n3CCNC4)ccc2cn1)C1CC1` [Compound 265, N-(6-(5,6,7,8-Tetrahydroimidazo[1,2-a]pyrazin-3-yl)isoquinolin-3-yl) cyclopropanecarboxamide], the EC50 in assay [1] was determined as 2560 nM; in assay [2], 4350 nM; in assay [3] (setting [6]), 656 nM; in assay [4], 3.7 nM; with IL-6, 3000 nM; at recombinant GSK3β kinase, 7 nM. In assay [5], this molecule came in with an EC50 of 1240 nM.
Consider `O=C(CN1C2CCC1CC2)Nc1cc2cc(-c3cnn4c3CN(CCF)CC4)ccc2cn1` [Compound 1000, 2-(7-Azabicyclo[2.2.1]heptan-7-yl)-N-(6-(5-(2-fluoroethyl)-4,5,6,7-tetrahydropyrazolo[1,5-a]pyrazin-3-yl)isoquinolin-3-yl)acetamide], for which the EC50 was found to be 2960 nM in assay [1]; 7300 nM in assay [2]; 1500 nM in assay [3] (SH-SY5Y); 11.1 nM in assay [4]; 8720 nM with IL-6; 270 nM on recombinant GSK3β kinase. The EC50 in assay [5] turned out to be 4320 nM.
For `O=C(Nc1cc2cc(-c3cnn4c3CN(CCF)CC4)ccc2cn1)C1CCN(CC2(C(F)(F)F)CC2)CC1` [Compound 998, N-(6-(5-(2-Fluoroethyl)-4,5,6,7-tetrahydropyrazolo[1,5-a]pyrazin-3-yl)isoquinolin-3-yl)-1-((1-(trifluoromethyl)cyclopropyl)methyl)piperidine-4-carboxamide], the EC50 in assay [1] was 260 nM; in assay [2], 4750 nM; in assay [3] (setting [6]), 638 nM; in assay [4] it was 6.2 nM; with IL-6 it was 7080 nM; on recombinant GSK3β kinase, 102 nM. The molecule further yielded an EC50 in assay [5] of 2250 nM.
For `CCN(CC)CC(=O)Nc1cc2cc(-c3cnn(C)c3CN3CCCCC3)ccc2cn1` [Compound 785, 2-(Diethylamino)-N-(6-(1-methyl-5-(piperidin-1-ylmethyl)-1H-pyrazol-4-yl)isoquinolin-3-yl)acetamide], the EC50 was found to be 1170 nM in assay [1]; 2860 nM in assay [2]; 485 nM in assay [3] (setting [6]); 10.1 nM in assay [4]; 9150 nM with IL-6; 44 nM on recombinant GSK3β kinase. In assay [5], this molecule showed an EC50 of 2840 nM.
Turning to `Cn1cncc1-c1ccc2cnc(NC(=O)C3(F)CCCCC3)cc2c1` [Compound 527, 1-Fluoro-N-(6-(1-methyl-1H-imidazol-5-yl)isoquinolin-3-yl)cyclohexane-1-carboxamide], the EC50 was more than 10000 nM in assay [1]; more than 10000 nM in assay [2]; 2400 nM in assay [3] (setting [6]); 9.8 nM in assay [4]; 9980 nM in the assay on IL-6; 415 nM at recombinant GSK3β kinase. The EC50 in assay [5] is more than 10000 nM. Moreover, the inhibition at 10 µM was determined as 37.3% in assay [1], 43.6% in assay [2] and 23.5% in assay [5].
As for `Cn1cc(-c2ccc3cnc(NC(=O)C4CC5(C4)CN(C(=O)C(F)(F)F)C5)cc3c2)cn1` [Compound 325, N-(6-(1-Methyl-1H-pyrazol-4-yl)isoquinolin-3-yl)-2-(2,2,2-trifluoroacetyl)-2-azaspiro[3.3]heptane-6-carboxamide], the EC50 in assay [1] came to 1300 nM; in assay [2], 526 nM; in assay [3] (setting [6]) it was 440 nM; in assay [4] it was 2.1 nM; in the assay with IL-6, 357 nM; on recombinant GSK3β kinase it was 3 nM. The same molecule registered an EC50 in assay [5] of 552 nM.
As for `CN1CCN(CC(=O)Nc2cc3cc(-c4cnn5c4CN(CCF)CC5)ccc3cn2)CC1` [Compound 1024, N-(6-(5-(2-Fluoroethyl)-4,5,6,7-tetrahydropyrazolo[1,5-a]pyrazin-3-yl)isoquinolin-3-yl)-2-(4-methylpiperazin-1-yl)acetamide], the EC50 in assay [1] is 549 nM; in assay [2], 6770 nM; in assay [3] (setting [6]), 1200 nM; in assay [4], 17 nM; in the assay with IL-6, more than 10000 nM; on recombinant GSK3β kinase, 150 nM. This molecule returned an EC50 in assay [5] of 3510 nM. Further, the inhibition at 10 µM in the assay with IL-6 turned out to be 33.1%.
As to `O=C(CN1CCCCC1)Nc1cc2cc(-c3cncs3)ccc2cn1` [Compound 760, 2-(Piperidin-1-yl)-N-(6-(thiazol-5-yl)isoquinolin-3-yl)acetamide], the EC50 is 765 nM in assay [1]; 3280 nM in assay [2]; 1200 nM in assay [3] (setting [6]); 3.8 nM in assay [4]; 1240 nM with IL-6; 133 nM at recombinant GSK3β kinase. Besides, in assay [5], the response was half-maximal at 3970 nM (EC50).
Consider `CN1CCCN(CC(=O)Nc2cc3cc(-c4cnn(C)c4)ccc3cn2)CC1` [Compound 1012, 2-(4-Methyl-1,4-diazepan-1-yl)-N-(6-(1-methyl-1H-pyrazol-4-yl)isoquinolin-3-yl)acetamide], for which the EC50 in assay [1] is more than 10000 nM; in assay [2], 3200 nM; in assay [3] (setting [6]) it was 555 nM; in assay [4] it was 13 nM; in the assay with IL-6, 3120 nM; at recombinant GSK3β kinase, 155 nM. For the same molecule, a half-maximal effect in assay [5] (EC50) was put at 2720 nM. Besides, the inhibition at 10 µM in assay [1] came to 10.2%.
Turning to `Cn1ncc(-c2ccc3cnc(NC(=O)C4CCC(F)(F)CC4)cc3c2)c1CN1CCCCC1` [Compound 300, 4,4-Difluoro-N-(6-(1-methyl-5-(piperidin-1-ylmethyl)-1H-pyrazol-4-yl)isoquinolin-3-yl)cyclohexane-1-carboxamide], the EC50 in assay [1] is 511 nM; in assay [2], 1300 nM; in assay [3] (setting [6]), 222 nM; in assay [4], 8.2 nM; in the assay with IL-6, 2740 nM; on recombinant GSK3β kinase, 31 nM. Also, a half-maximal response in assay [5] (EC50) required 1120 nM.
Take `CN(CC(=O)Nc1cc2cc(-c3cnc4n3CCNC4)ccc2cn1)C1CCC1` [Compound 1031, 2-(Cyclobutyl(methyl)amino)-N-(6-(5,6,7,8-tetrahydroimidazo[1,2-a]pyrazin-3-yl)isoquinolin-3-yl)acetamide]: the EC50 in assay [1] was more than 10000 nM; in assay [2], 3890 nM; in assay [3] (setting [6]), 969 nM; in assay [4], 70.4 nM; with IL-6, more than 10000 nM; at recombinant GSK3β kinase, 380 nM. In assay [5], this molecule displayed an EC50 of 3970 nM. Besides, the inhibition at 10 µM worked out at 39.2% in assay [1] and 2% in the assay on IL-6.
As to `C[C@@H]1CCCN1CC(=O)Nc1cc2cc(-c3cnc4n3CCNC4)ccc2cn1` [Compound 1030, (R)-2-(2-Methylpyrrolidin-1-yl)-N-(6-(5,6,7,8-tetrahydroimidazo[1,2-a]pyrazin-3-yl)isoquinolin-3-yl)acetamide], the EC50 was 2810 nM in assay [1]; more than 10000 nM in assay [2]; 1200 nM in assay [3] (setting [6]); 194 nM in assay [4]; more than 10000 nM with IL-6; 390 nM on recombinant GSK3β kinase. In addition, in assay [5], the EC50 was more than 10000 nM. For the same molecule, the results for the inhibition at 10 µM (in assay [2]; with IL-6; in assay [5]) were 19.3%, 7.7% and 44.8%, respectively.
Regarding `Cn1cncc1-c1ccc2cnc(NC(=O)C(C)(C)F)cc2c1` [Compound 517, 2-Fluoro-2-methyl-N-(6-(1-methyl-1H-imidazol-5-yl)isoquinolin-3-yl) propanamide], the EC50 in assay [1] is more than 10000 nM; in assay [2], more than 10000 nM; in assay [3] (setting [6]) it was 1300 nM; in assay [4], 9.6 nM; with IL-6, 9070 nM; at recombinant GSK3β kinase, 470 nM. Further, the EC50 in assay [5] was more than 10000 nM. The inhibition at 10 µM amounted to 29.9% in assay [1], 27.5% in assay [2] and 35.8% in assay [5].
